From patent publication EP3952872B1, “CARBAMOYL CYCLOHEXANE DERIVATIVES FOR TREATING AUTISM SPECTRUM DISORDER” (Richter Gedeon Nyrt., priority 2019, dated 2020)
“Also recorded” adds a separate entry of the source. Like-named read-outs stand apart in the source and are kept apart here.

Key:
dopamine D2L receptor = dopamine D2L receptor (Homo sapiens, UniProt P14416); assay: dopamine D2L receptor affinity; type: binding
dopamine D2S receptor = dopamine D2S receptor (Homo sapiens, UniProt P14416); assay: dopamine D2S receptor affinity; type: binding
[1] = target: T1, serotonin 5-HT2B receptor (Homo sapiens, UniProt P41595); assay: serotonin 5-HT2B receptor affinity; type: binding
dopamine D2 receptor [2] = target: T2, dopamine D2 receptor (Homo sapiens, UniProt P14416); assay: functional activity at dopamine D2 receptor; type: biochemical; conditions: Compound 2
[3] = target: T1, serotonin 5-HT2B receptor; assay: functional activity at serotonin 5-HT2B receptor; type: biochemical; conditions: Compound 2
[4] = target: T3, serotonin 5-HT1A receptor (Homo sapiens, UniProt P08908); conditions: Compound 2
T3 sequence (P08908 1-422): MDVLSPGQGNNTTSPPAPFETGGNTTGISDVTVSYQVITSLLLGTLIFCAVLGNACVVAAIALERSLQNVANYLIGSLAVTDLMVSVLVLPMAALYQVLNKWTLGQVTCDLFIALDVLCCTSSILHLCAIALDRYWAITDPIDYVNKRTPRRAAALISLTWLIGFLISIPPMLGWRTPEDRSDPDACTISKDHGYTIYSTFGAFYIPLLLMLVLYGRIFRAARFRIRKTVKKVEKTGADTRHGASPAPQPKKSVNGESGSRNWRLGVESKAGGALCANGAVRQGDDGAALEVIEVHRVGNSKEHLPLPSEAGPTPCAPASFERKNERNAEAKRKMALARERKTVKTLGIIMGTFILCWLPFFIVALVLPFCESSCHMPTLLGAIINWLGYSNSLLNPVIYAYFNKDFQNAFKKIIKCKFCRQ

[5] = target: T3, serotonin 5-HT1A receptor; assay: biochemical
[6] = tested on: prenatally valproate-treated rats; assay: maternal deprivation-induced ultrasonic vocalization in rat pups, prenatal valproate model; type: in vivo, Wistar rats; conditions: acute p.o.; effect at 0.003, 0.03 and 0.1 mg/kg (0.01 mg/kg also tested); Figure 1
Protocol: Ultrasonic call counts are recorded for 10 min.

[7] = tested on: prenatally valproate-treated rats; assay: social play behavior, prenatal valproate model; type: in vivo, Wistar rats; conditions: p.o. daily for 8 days; 0.003-0.1 mg/kg, significant at 0.1 mg/kg; male offspring; Figure 3
Protocol: Offspring are housed according to standard laboratory conditions until time of behavioral testing. Animals are housed in groups of 4 in conventional cages and maintained at 22-24°C on a standard 12 hour light/dark cycle, with food and water available ad libitum. After investigational drug treatment, offspring are examined behaviorally in tests relevant for the assessment of autistic behavior. These tests include maternal deprivation-induced ultrasonic vocalization in rat pups, social play, social preference and the open field. […] At postnatal day 30, following 8 days treatment with the test compound, prenatally VPA-treated rats are evaluated for juvenile play behavior. The test is carried out in a novel test arena with pairs of animals from the same treatment group over a 15-min trial. Animals are scored for play activity measured by duration of social play behavior. Statistical analysis employs one-way ANOVA and the post hoc Dunnett test.

[8] = tested on: prenatally valproate-treated rats; assay: open field assay, prenatal valproate model; type: in vivo, Wistar rats; conditions: p.o. daily for 9 days, 0.003-0.1 mg/kg, male offspring
Protocol: Offspring are housed according to standard laboratory conditions until time of behavioral testing. Animals are housed in groups of 4 in conventional cages and maintained at 22-24°C on a standard 12 hour light/dark cycle, with food and water available ad libitum. After investigational drug treatment, offspring are examined behaviorally in tests relevant for the assessment of autistic behavior. These tests include maternal deprivation-induced ultrasonic vocalization in rat pups, social play, social preference and the open field. […] At postnatal day 31-32, animals are scored for locomotor activity and exploratory behavior in a 10-min trial in an open field test arena after 9-day oral treatment with the test compound. Activity is analysed for readouts of repetitive/stereotypic behaviors such as total distance moved and frequency of circling behavior. Statistical analysis employs one-way ANOVA and the post hoc Dunnett test.

dopamine D2 receptor [9] = target: T2, dopamine D2 receptor; conditions: literature; cited from earlier work
[10] = target: T1, serotonin 5-HT2B receptor; conditions: literature; cited from earlier work
[11] = target: T3, serotonin 5-HT1A receptor; conditions: cited from earlier work

T1 sequence (P41595 whole entry): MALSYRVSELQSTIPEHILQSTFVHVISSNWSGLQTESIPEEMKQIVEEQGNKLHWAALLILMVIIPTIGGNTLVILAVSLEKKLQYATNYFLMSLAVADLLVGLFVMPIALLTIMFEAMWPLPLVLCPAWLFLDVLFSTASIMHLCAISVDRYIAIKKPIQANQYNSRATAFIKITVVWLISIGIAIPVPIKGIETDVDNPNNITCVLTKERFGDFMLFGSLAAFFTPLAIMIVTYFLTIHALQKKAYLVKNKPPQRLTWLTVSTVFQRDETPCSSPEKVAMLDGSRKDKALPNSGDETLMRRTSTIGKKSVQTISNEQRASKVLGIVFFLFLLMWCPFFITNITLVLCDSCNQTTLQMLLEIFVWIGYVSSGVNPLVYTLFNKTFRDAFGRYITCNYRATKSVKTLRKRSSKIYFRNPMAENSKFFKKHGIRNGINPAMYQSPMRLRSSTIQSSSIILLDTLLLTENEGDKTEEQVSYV
T2 sequence (P14416 whole entry): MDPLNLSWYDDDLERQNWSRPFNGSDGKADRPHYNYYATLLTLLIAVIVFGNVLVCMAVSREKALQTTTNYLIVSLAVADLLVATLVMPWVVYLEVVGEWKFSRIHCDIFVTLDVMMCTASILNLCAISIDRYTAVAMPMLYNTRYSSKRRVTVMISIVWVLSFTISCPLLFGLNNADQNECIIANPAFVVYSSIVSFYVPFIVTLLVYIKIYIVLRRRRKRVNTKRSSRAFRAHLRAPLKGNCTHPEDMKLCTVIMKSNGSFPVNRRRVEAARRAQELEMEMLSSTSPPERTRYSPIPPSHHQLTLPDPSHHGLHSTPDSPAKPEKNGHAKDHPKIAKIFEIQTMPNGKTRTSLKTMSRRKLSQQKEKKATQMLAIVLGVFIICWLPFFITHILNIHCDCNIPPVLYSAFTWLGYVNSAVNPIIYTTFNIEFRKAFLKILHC
Sequence of dopamine D2S receptor (P14416 1-414 isoform P14416-2): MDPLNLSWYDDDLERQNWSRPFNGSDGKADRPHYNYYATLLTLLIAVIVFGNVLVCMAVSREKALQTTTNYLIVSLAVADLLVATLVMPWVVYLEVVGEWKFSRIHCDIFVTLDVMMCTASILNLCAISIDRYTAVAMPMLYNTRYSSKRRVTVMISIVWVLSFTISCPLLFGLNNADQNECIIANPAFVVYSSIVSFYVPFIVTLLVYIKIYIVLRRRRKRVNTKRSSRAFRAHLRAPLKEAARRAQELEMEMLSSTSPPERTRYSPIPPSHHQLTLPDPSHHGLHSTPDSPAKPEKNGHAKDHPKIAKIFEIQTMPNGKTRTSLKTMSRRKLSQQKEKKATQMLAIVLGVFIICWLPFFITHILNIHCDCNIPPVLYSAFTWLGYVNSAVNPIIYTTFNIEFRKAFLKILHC
Sequence of dopamine D2L receptor (P14416 whole entry): as the sequence (P14416 whole entry) above

Compound	Ki (dopamine D2L receptor) [nM]	Ki (dopamine D2S receptor) [nM]	Ki [1] [nM]	functional character at the dopamine D2 receptor (dopamine D2 receptor [2])	functional character at the serotonin 5-HT2B receptor [3]	functional character at the serotonin 5-HT1A receptor [4]	Ki [5] [nM]	isolation-induced vocalizations (number of USV vocalizations) [6]	social play deficit (time spent playing) [7]	excessive motility / hyperactivity (distance travelled) ([8]; significant at 0.1 mg/kg, Figure 4)	excessive circling behavior (number of 360-degree turns) ([8]; significant at all doses, Figure 5)	functional character at the dopamine D2 receptor (dopamine D2 receptor [9])	functional character at the serotonin 5-HT2B receptor [10]	intrinsic activity at the serotonin 5-HT1A receptor ([11]; literature (Heusler et al. 2016; Kiss et al. 2010)) [%]	functional character at the serotonin 5-HT1A receptor ([11]; literature)
O=C(N[C@H]1CC[C@H](CCN2CCN(c3cccc(Cl)c3Cl)CC2)CC1)N1CCOCC1 [Compound 2, trans-N-(4-{2-[4-(2,3-dichloro-phenyl)-piperazine-1-yl]-ethyl}-cyclohexyl)-morpholine-4 carboxamide]	0.4	0.52	1.11	partial agonist	full antagonist	weak partial agonist	5.73								
CN(C)C(=O)N[C@H]1CC[C@H](CCN2CCN(c3cccc(Cl)c3Cl)CC2)CC1 [cariprazine, trans-N-[4-[2-[4-(2,3-dichlorophenyl)piperazin-1-yl]ethyl]cyclohexyl]-N',N'-dimethylurea]								statistically significant; also recorded: fully reversed	statistically significant; also recorded: partially nevertheless, significantly reversed	fully reversed	statistically significant; also recorded: fully reversed	partial agonist	full antagonist	38	weak partial agonist
